The results in this text go back to PubChem BioAssay AID1259408 (Genetic Toxicology Data Bank (GENE-TOX), 2018).

For the data set, the system named is GENE-TOX genotoxicity assays, various organisms and cells. Nature of the data set: GENE-TOX mutagenicity studies. Particulars: for call: Assay Type: In vivo carcinogenicity studies.
Setting [1] is: Species/Cell Type: Bacillus subtilis (H17 vs M45), Assay Type: Rec-assay, spot test, DNA effects (bacterial DNA repair), Assay Code: REW-, Evaluation Type: Evaluation A (Pre-1980).
Where [2] appears, read: Species/Cell Type: Nonhuman, Assay Code: CCG+, Evaluation Type: Evaluation A (Pre-1980).
Where [3] appears, read: Species/Cell Type: Salmonella typhimurium (one or more of the five standard strains: TA98, TA100, TA1535, TA1537, and TA1538), Assay Type: Histidine reverse gene mutation, Ames assay, Assay Code: SAL+, Evaluation Type: Evaluation A (Pre-1980).
Where [4] appears, read: Species/Cell Type: Saccharomyces cerevisiae, Assay Type: Reverse gene mutation, Assay Code: YER+, Evaluation Type: Evaluation A (Pre-1980).
[5] abbreviates: Species/Cell Type: Salmonella typhimurium (one or more of the five standard strains: TA98, TA100, TA1535, TA1537, and TA1538), Assay Type: Histidine reverse gene mutation, Ames assay, Assay Code: SAL-, Evaluation Type: Evaluation A (Pre-1980).
[6] abbreviates: Species/Cell Type: Saccharomyces cerevisiae, Assay Type: Mitotic recombination or gene conversion, Assay Code: YEC-, Evaluation Type: Evaluation A (Pre-1980).
Setting [7] is: Species/Cell Type: Salmonella typhimurium (one or more of the five standard strains: TA98, TA100, TA1535, TA1537, and TA1538), Assay Type: Histidine reverse gene mutation, Ames assay, Assay Code: SALT, Evaluation Type: Evaluation A (Pre-1980).
Setting [8] is: Species/Cell Type: Drosophila melanogaster, Assay Type: Sex-linked recessive lethal gene mutation, Assay Code: SRL+, Evaluation Type: Evaluation A (Pre-1980).
Setting [9] is: Species/Cell Type: Salmonella typhimurium (one or more of the five standard strains: TA98, TA100, TA1535, TA1537, and TA1538), Assay Type: Histidine reverse gene mutation, Ames assay, Assay Code: SAL+*, Activation: With metabolic activation, Evaluation Type: Evaluation A (Pre-1980).
Setting [10] is: Species/Cell Type: Mammalian polychromatic erythrocytes, Assay Type: Micronucleus test, chromosome aberrations, Assay Code: MNTT, Evaluation Type: Evaluation B (Post-1980).
Where [11] appears, read: Species/Cell Type: Nonhuman, Assay Type: Sister-chromatid exchange (SCE) in vivo, Assay Code: SC3T, Evaluation Type: Evaluation B (Post-1980).
Setting [12] is: Species/Cell Type: Rodents, Sex: Male, Assay Type: Dominant lethal test, Assay Code: DLT-, Evaluation Type: Evaluation A (Pre-1980).
The mark [13] stands for this setting: Species/Cell Type: Drosophila melanogaster, Assay Type: Sex-linked recessive lethal gene mutation, Assay Code: SRLT, Evaluation Type: Evaluation A (Pre-1980).
Setting [14] is: Species/Cell Type: Mammalian polychromatic erythrocytes, Assay Type: Micronucleus test, chromosome aberrations, Assay Code: MNTT, Evaluation Type: Evaluation A (Pre-1980).
Setting [15] is: Species/Cell Type: Mouse, Sex: Male, Assay Type: Sperm morphology, Assay Code: SPI-, Evaluation Type: Evaluation A (Pre-1980).

The structures appear in SMILES notation. Calls of active or inactive are those of the source. How the calls were made is not given here.

`[Cl][Fe][Cl]`: the mutagenic call under setting [1] is “inactive; negative” and the mutagenic call (Species/Cell Type: Syrian hamster embryo (SA7/SHE) cells, Assay Type: Cell transformation, viral enhanced, Assay Code: CT7+, Evaluation Type: Evaluation A (Pre-1980)) was “active; positive”.
As to `Nc1cccc2c(N)cccc12`, the call under setting [2] was “active; positive”.
With `O=[N+]([O-])c1ccc2[nH]ncc2c1`, the mutagenic call under setting [3] was “active; positive”.
As for `CCN(CC)CCn1nc2c3c(c(CO)ccc31)Sc1cc(Cl)ccc1-2`, the mutagenic call reads like this: (Species/Cell Type: Drosophila melanogaster, Assay Type: Sex-linked recessive lethal gene mutation, Assay Code: SRL-, Evaluation Type: Evaluation A (Pre-1980)) “inactive; negative”; (Species/Cell Type: Fischer rat embryo (RLV/1706) cells, Assay Type: Cell transformation, viral enhanced, Assay Code: CTR-, Evaluation Type: Evaluation A (Pre-1980)) “inactive; negative”; (Species/Cell Type: Mouse lymphoma (L5178Y) cells, Assay Type: Forward gene mutation at the thymidine kinase (TK) locus, chromosome aberrations, Assay Code: L51+, Evaluation Type: Evaluation A (Pre-1980)) “active; positive”; (Species/Cell Type: Neurospora crassa, Assay Type: Forward gene mutation, Assay Code: NEF+, Evaluation Type: Evaluation A (Pre-1980)) “active; positive”; under setting [4], “active; positive”; under setting [3], “active; positive”. Moreover, the mutagenic call was “active; positive” (Species/Cell Type: Salmonella typhimurium, Assay Type: Forward and reverse gene mutation, body fluid assay, Assay Code: BFU+, Evaluation Type: Evaluation A (Pre-1980)); “active; positive” (Species/Cell Type: Salmonella typhimurium, Assay Type: Forward and reverse gene mutation, host-mediated assay, Assay Code: HMA+, Evaluation Type: Evaluation A (Pre-1980)).
Regarding `O=C(O)c1ccccc1O`, the mutagenic call under setting [4] is “active; positive” and the mutagenic call under setting [5] was “inactive; negative”.
As for `COCC(C)OS(C)(=O)=O` (configuration not stated), the mutagenic call (Species/Cell Type: Hordeum vulgare (barley), Assay Type: Chromosome aberrations, Assay Code: HOC+D, Dose Response: With dose response, Evaluation Type: Evaluation A (Pre-1980)) was “active; positive”.
`Cc1cc(C)c(N=Nc2c(O)c(S(=O)(=O)O)cc3cc(S(=O)(=O)O)ccc23)cc1C`: the mutagenic call was “no conclusion” (Species/Cell Type: Bacillus subtilis (H17 vs M45), Assay Type: Rec-assay, spot test, DNA effects (bacterial DNA repair), Assay Code: REWT, Evaluation Type: Evaluation A (Pre-1980)); “no conclusion” (Species/Cell Type: Bacillus subtilis (H17 vs M45T), Assay Type: Rec-assay, spot test, DNA effects (bacterial DNA repair), Assay Code: REXT, Evaluation Type: Evaluation A (Pre-1980)); “inactive; negative” under setting [6]; “inactive; negative” under setting [5]. The call under setting [2] was “active; positive”.
For `N#Cc1c(Cl)cccc1Cl`, under setting [6], the mutagenic call was “inactive; negative”.
Take `Cc1cc2c(c3ccc4ccccc4c13)CCCC2C` (configuration not stated): the mutagenic call under setting [7] is given as “no conclusion”.
`O=NN1CCCC(Cl)C1` (configuration not stated): the mutagenic call runs as follows: under setting [8], “active; positive”; under setting [9], “active; positive”.
Regarding `O=P(N1C2COCC21)(N1C2COCC21)N1C2COCC21` (configuration not stated), the mutagenic call under setting [8] was “active; positive”.
As for `CC(=O)Nc1ccc(-c2ccc(NO)cc2)cc1`, for the setting “Species/Cell Type: Chinese hamster ovary (CHO) cells, Assay Type: Forward gene mutation at the HPRT locus, Assay Code: CHO+, Evaluation Type: Evaluation B (Post-1980)”, the mutagenic call was “active; positive”.
With `CC(=O)Nc1ccc(/C=C/c2ccccc2)cc1`, the mutagenic call runs as follows: (Species/Cell Type: Human diploid fibroblasts, Assay Type: Unscheduled DNA synthesis (UDS) in vitro, DNA effects, Assay Code: UDH-, Evaluation Type: Evaluation A (Pre-1980)) “inactive; negative”; under setting [9], “active; positive”.
Consider `Clc1cc2c(cc1Cl)Oc1cc(Cl)c(Cl)cc1O2`, for which the mutagenic call under setting [10] was “no conclusion”, the mutagenic call under setting [11] is on record as “no conclusion” and the mutagenic call under setting [12] is “inactive; negative”. The call under setting [2] was “active; positive”.
Regarding `COC(C)[C@](O)(C(=O)O)C(C)C` (some centres not stated), the mutagenic call under setting [13] is listed as “no conclusion”.
Take `COc1c(O)c2c(c3cc(C(=O)N4CCc5c4c(O)c(OC)c4[nH]c(C(=O)N6C[C@H]7C[C@@]78C6=CC(=O)c6[nH]cc(C)c68)cc54)[nH]c13)CCN2C(N)=O`: the mutagenic call (Species/Cell Type: Mammalian polychromatic erythrocytes, Assay Type: Micronucleus test, chromosome aberrations, Assay Code: MNT+, Evaluation Type: Evaluation B (Post-1980)) was “active; positive”.
Regarding `C#Cc1cn([C@H]2C[C@H](O)[C@@H](CO)O2)c(=O)[nH]c1=O`, the mutagenic call was “active; positive” (Species/Cell Type: Human lymphocytes, Assay Type: Sister-chromatid exchange (SCE) in vitro, Assay Code: SCL+, Evaluation Type: Evaluation B (Post-1980)) and “active; positive” (Species/Cell Type: Human, Assay Type: Sister-chromatid exchange (SCE) in vitro, Assay Code: SC1+, Evaluation Type: Evaluation B (Post-1980)).
As for `Cc1c([N+](=O)[O-])cc[n+]([O-])c1C`, the mutagenic call (Species/Cell Type: Escherichia coli polA (W3119 vs P3478), Assay Type: Rec-assay, DNA effects (bacterial DNA repair), Assay Code: RE1+, Evaluation Type: Evaluation A (Pre-1980)) was “active; positive”.
`O=C1CCCO1`: the mutagenic call reads like this: under setting [14], “no conclusion”; under setting [15], “inactive; negative”; (Species/Cell Type: Nonhuman, Assay Type: Sister-chromatid exchange (SCE) in vitro, Assay Code: SC2+, Evaluation Type: Evaluation B (Post-1980)) “active; positive”.
On to `Nc1nc(-c2ccccc2)cs1`, for which the mutagenic call under setting [1] is “inactive; negative”.
With `OCC(Br)(Br)Br`, the mutagenic call (Species/Cell Type: Rodents, Sex: Female, Assay Type: Dominant lethal test, Assay Code: DLTF-, Evaluation Type: Evaluation A (Pre-1980)) is “inactive; negative” and the mutagenic call under setting [12] is “inactive; negative”.
`Cc1ccc(S(=O)(=O)NC(=O)NN2CCCCCC2)cc1`: the mutagenic call under setting [11] is listed as “no conclusion”.
Take `N=c1ccc2nc3ccc(N)cc3sc-2c1`: the mutagenic call is “inactive; negative” under setting [1]; “no conclusion” under setting [13]; “no conclusion” (Species/Cell Type: Saccharomyces cerevisiae, Assay Type: Mitotic recombination or gene conversion, Assay Code: YECT, Evaluation Type: Evaluation A (Pre-1980)).
`O=C1C(c2[nH]c3ccccc3c2O)=Nc2ccccc21`: the mutagenic call (Species/Cell Type: Mammalian polychromatic erythrocytes, Assay Type: Micronucleus test, chromosome aberrations, Assay Code: MNT-, Evaluation Type: Evaluation B (Post-1980)) was “inactive; negative”.
Consider `O=c1cc[nH]c(=S)[nH]1`, for which the mutagenic call under setting [13] is given as “no conclusion”.
Turning to `COc1ccccc1O`, the mutagenic call is, setting by setting: (Species/Cell Type: Allium cepa, Assay Type: Chromosome aberrations, Assay Code: ALC+, Evaluation Type: Evaluation A (Pre-1980)) “active; positive”; (Species/Cell Type: Human lymphocytes, Assay Type: Sister-chromatid exchange (SCE) in vitro, Assay Code: SCL+D, Dose Response: With dose response, Evaluation Type: Evaluation B (Post-1980)) “active; positive”; (Species/Cell Type: Human, Assay Type: Sister-chromatid exchange (SCE) in vitro, Assay Code: SC1+D, Dose Response: With dose response, Evaluation Type: Evaluation B (Post-1980)) “active; positive”; under setting [7], “no conclusion”.
Consider `Cc1ccc(S(=O)(=O)NCl)cc1`, for which, under setting [10], the mutagenic call was “no conclusion”.
With `[CH3][Hg][O]C(C)=O`, the mutagenic call reads like this: under setting [14], “no conclusion”; under setting [15], “inactive; negative”.
In the case of `CC1CCCC(C)N1N=O` (configuration not stated), the mutagenic call (Species/Cell Type: Drosophila melanogaster, Assay Type: Aneuploidy, partial sex chromosome loss, chromosome aberrations, Assay Code: DAPT, Evaluation Type: Evaluation A (Pre-1980)) is recorded as “no conclusion”; the mutagenic call (Species/Cell Type: Drosophila melanogaster, Assay Type: Aneuploidy, whole sex chromosome loss, chromosome aberrations, Assay Code: DACT, Evaluation Type: Evaluation A (Pre-1980)) is on record as “no conclusion”; the mutagenic call under setting [13] is recorded as “no conclusion”; the mutagenic call (Species/Cell Type: Saccharomyces cerevisiae, Assay Type: Forward gene mutation, Assay Code: YEF-*, Activation: With metabolic activation, Evaluation Type: Evaluation A (Pre-1980)) is “inactive; negative”; the mutagenic call (Species/Cell Type: Saccharomyces cerevisiae, Assay Type: Reverse gene mutation, Assay Code: YER+*, Activation: With metabolic activation, Evaluation Type: Evaluation A (Pre-1980)) was “active; positive”. The call (Species/Cell Type: Nonhuman, Assay Code: CCGT, Evaluation Type: Evaluation A (Pre-1980)) was “no conclusion”.
